Experimental data as given in patent US5585491A, “Antibacterial agents” (Otsuka Pharmaceutical Co., Ltd., priority 1995, dated 1996).
Converted amounts (≈) assume the structure as drawn. Where two headings read alike, the source gives them in different places.

How the values were obtained:
Test in all cases: In vitro antibacterial activity, microtitration dilution method (MIC)
Assay type in all cases: cell-based
[1] = test system: Enterobacter cloacae MA 2646
Excerpt: (§1) The compounds of the invention display antibacterial activity when tested by the microtitration dilution method as described in Heifetz, et al, Antimicr. Agents & Chemoth., 6, 124 (1974), which is incorporated herein by reference. By use of this method, the followed minimum inhibitory concentration values (MICs in μg/mL) were obtained for representative compounds of the invention.

[2] = test system: Escherichia coli Vogel; conditions: Escherichia coli Vogel, microtitration dilution; read-out: Minimal Inhibitory Concentration MIC
Excerpt: as §1

[3] = test system: Staphylococcus aureus H 228; conditions: H228; Staphylococcus aureus H 228, microtitration dilution; read-out: Minimal Inhibitory Concentration MIC
Excerpt: as §1

[4] = test system: Streptococcus pyogenes C-203; conditions: C203; Streptococcus pyogenes C-203, microtitration dilution; read-out: Minimal Inhibitory Concentration MIC
Excerpt: as §1

[5] = test system: Klebsiella pneumoniae MGH-2
Excerpt: (§2) Agents & Chemoth., 6, 124 (1974), which is incorporated herein by reference.

[6] = test system: Proteus rettgeri M 1771; conditions: Providencia rettgeri
Excerpt: as §2

[7] = test system: Pseudomonas aeruginosa UI-18
Excerpt: as §2

[8] = test system: Staphylococcus aureus UC-76; conditions: UC76; Staphylococcus aureus UC-76, microtitration dilution; read-out: Minimal Inhibitory Concentration MIC
Excerpt: as §2

[9] = test system: Streptococcus faecalis MGH-2; conditions: Enterococcus faecalis
Excerpt: as §2

[10] = test system: Streptococcus pneumoniae SV-1; conditions: SV1; Streptococcus pneumoniae SV-1, microtitration dilution; read-out: Minimal Inhibitory Concentration MIC
Excerpt: as §2

[11] = MA2646, Enterobacter cloacae MA 2646, microtitration dilution, read-out: Minimal Inhibitory Concentration MIC
[12] = MGH2, Klebsiella pneumoniae MGH-2, microtitration dilution, read-out: Minimal Inhibitory Concentration MIC
[13] = M1771, Proteus rettgeri M 1771, microtitration dilution, read-out: Minimal Inhibitory Concentration MIC
[14] = UI18, Pseudomonas aeruginosa UI-18, microtitration dilution, read-out: Minimal Inhibitory Concentration MIC
[15] = MGH2, Streptococcus faecalis MGH-2, microtitration dilution, read-out: Minimal Inhibitory Concentration MIC
[16] = Enterobacter cloacae, MA2646, read-out: Minimal Inhibitory Concentration MIC
[17] = Klebsiella pneumoniae, MGH2, read-out: Minimal Inhibitory Concentration MIC
[18] = M1771, read-out: Minimal Inhibitory Concentration MIC

| Structure (SMILES) | MIC [1, 11] [µg/mL] | MIC [2] [µg/mL] | MIC [3] [µg/mL] | MIC [4] [µg/mL] | MIC [5, 12] [µg/mL] | MIC [6, 13] [µg/mL] | MIC [7, 14] [µg/mL] | MIC [8] [µg/mL] | MIC [9, 15] [µg/mL] | MIC [10] [µg/mL] | MIC ([9]; MGH2, read-out: Minimal Inhibitory Concentration MIC) [µg/mL] | MIC [1, 16] [µg/mL] | MIC [5, 17] [µg/mL] | MIC [6, 18] [µg/mL] | MIC ([7]; Pseudomonas aeruginosa, UI18, read-out: Minimal Inhibitory Concentration MIC) [µg/mL] |
| --- | --- | --- | --- | --- | --- | --- | --- | --- | --- | --- | --- | --- | --- | --- | --- |
| Cc1c(F)c(N2CCNC(C)C2)cc2c1c(=O)c(C(=O)O)cn2-c1ccc(F)cc1F (centres unmarked) [Ex. 17a, 6-Fluoro-1-(2,4-difluorophenyl)-1,4-dihydro-5-methyl-7-(3-methyl-1-piperazinyl)-4-oxo-3-quinolinecarboxylic acid] | 0.2 (≈ 0.464 µM) | 0.1 (≈ 0.232 µM) | 0.1 (≈ 0.232 µM) | 0.1 (≈ 0.232 µM) | 0.4 (≈ 0.927 µM) | 0.8 (≈ 1.85 µM) | 1.6 (≈ 3.71 µM) | 0.025 (≈ 0.0579 µM) | 0.4 (≈ 0.927 µM) | 0.05 (≈ 0.116 µM) |  |  |  |  |  |
| Cc1c(F)c(N2CC(C)NC(C)C2)cc2c1c(=O)c(C(=O)O)cn2-c1ccc(F)cc1F (centres unmarked) [Ex. 17b, 6-Fluoro-1-(2,4-difluorophenyl)-1,4-dihydro-5-methyl-7-(3,5-dimethyl-1-piperazinyl)-4-oxo-3-quinolinecarboxylic acid] | 0.4 (≈ 0.898 µM) | 0.2 (≈ 0.449 µM) | 0.1 (≈ 0.224 µM) | 0.1 (≈ 0.224 µM) | 0.8 (≈ 1.8 µM) | 1.6 (≈ 3.59 µM) | 1.6 (≈ 3.59 µM) | 0.05 (≈ 0.112 µM) |  | 0.05 (≈ 0.112 µM) | 0.8 (≈ 1.8 µM) |  |  |  |  |
| Cc1c(F)c(N2CCC(N)C2)cc2c1c(=O)c(C(=O)O)cn2-c1ccc(F)cc1F (centres unmarked) [Ex. 17c, 7-(3-Amino-1-pyrrolidinyl)-6-fluoro-1-(2,4-difluorophenyl)-1,4-dihydro-5-methyl-4-oxo-3-quinolinecarboxylic acid] |  | 0.05 (≈ 0.12 µM) | 0.05 (≈ 0.12 µM) | 0.05 (≈ 0.12 µM) |  | 0.2 (≈ 0.479 µM) | 0.8 (≈ 1.92 µM) | 0.013 (≈ 0.0311 µM) | 0.1 (≈ 0.24 µM) | 0.025 (≈ 0.0599 µM) |  | 0.05 (≈ 0.12 µM) | 0.1 (≈ 0.24 µM) |  |  |
| Cc1c(F)c(N2CCC(C)(CN)C2)cc2c1c(=O)c(C(=O)O)cn2-c1ccc(F)cc1F (centres unmarked) [Ex. 17e, 7-[3-(Aminomethyl)-3-methyl-1-pyrrolidinyl]-6-fluoro-1(2,4-difluorophenyl)-1,4-dihydro-5-methyl-4-oxo-3-quinolinecarboxylic acid] | 0.4 (≈ 0.898 µM) | 0.4 (≈ 0.898 µM) | 0.05 (≈ 0.112 µM) | 0.025 (≈ 0.0561 µM) | 0.8 (≈ 1.8 µM) | 0.8 (≈ 1.8 µM) | 3.1 (≈ 6.96 µM) | 0.013 (≈ 0.0292 µM) | 0.2 (≈ 0.449 µM) | 0.013 (≈ 0.0292 µM) |  |  |  |  |  |
| Cc1c(F)c(N2CCC(N)C2)nc2c1c(=O)c(C(=O)O)cn2C1CC1 (centres unmarked) [Ex. 18, 7-(3-Amino-1-pyrrolidinyl)-1-cyclopropyl-6-fluoro-1,4-dihydro-5-methyl-4-oxo-1,8-naphthyridine-3-carboxylic acid] | 0.013 (≈ 0.0375 µM) | 0.013 (≈ 0.0375 µM) | 0.25 (≈ 0.722 µM) | 0.025 (≈ 0.0722 µM) | 0.025 (≈ 0.0722 µM) |  | 0.2 (≈ 0.577 µM) | 0.013 (≈ 0.0375 µM) | 0.05 (≈ 0.144 µM) | 0.013 (≈ 0.0375 µM) |  |  |  | 0.1 (≈ 0.289 µM) |  |
| Cc1c(F)c(N2CCNCC2)nc2c1c(=O)c(C(=O)O)cn2C1CC1 [Ex. 19, 1-Cyclopropyl-6-fluoro-1,4-dihydro-5-methyl-4-oxo-7-(1-piperazinyl)-1,8-naphthyridine-3-carboxylic acid] | 0.025 (≈ 0.0722 µM) | 0.013 (≈ 0.0375 µM) | 0.2 (≈ 0.577 µM) | 0.4 (≈ 1.15 µM) | 0.05 (≈ 0.144 µM) | 0.2 (≈ 0.577 µM) |  | 0.1 (≈ 0.289 µM) | 0.2 (≈ 0.577 µM) | 0.1 (≈ 0.289 µM) |  |  |  |  | 0.4 (≈ 1.15 µM) |
| Cc1c(F)c(N2CCC(N)C2)nc2c1c(=O)c(C(=O)O)cn2-c1ccc(F)cc1F (centres unmarked) [Ex. 22, 7-(3-Amino-1-pyrrolidinyl)-1-(2,4-difluorophenyl)-6-fluoro-1,4-dihydro-5-methyl-4-oxo-1,8-naphthyridine-3-carboxylic acid] |  | 0.05 (≈ 0.12 µM) | 0.05 (≈ 0.12 µM) | 0.05 (≈ 0.12 µM) | 0.05 (≈ 0.12 µM) |  | 0.2 (≈ 0.478 µM) | 0.013 (≈ 0.0311 µM) | 0.1 (≈ 0.239 µM) | 0.05 (≈ 0.12 µM) |  | 0.05 (≈ 0.12 µM) |  | 0.1 (≈ 0.239 µM) |  |
| Cc1c(F)c(N2CC[C@@H]([C@H](C)N)C2)nc2c1c(=O)c(C(=O)O)cn2-c1ccc(F)cc1F [Ex. 23, 3R, 1'S-7-[3-(1-Aminoethyl)-1-pyrrolidinyl]-1-(2,4-difluorophenyl)-6-fluoro-1,4-dihydro-5-methyl-4-oxo-1,8-naphthyridine carboxylic acid] | 0.2 (≈ 0.448 µM) | 0.1 (≈ 0.224 µM) | 0.006 (≈ 0.0134 µM) | 0.003 (≈ 0.00672 µM) |  | 0.2 (≈ 0.448 µM) | 0.2 (≈ 0.448 µM) | 0.003 (≈ 0.00672 µM) | 0.013 (≈ 0.0291 µM) | 0.003 (≈ 0.00672 µM) |  |  | 0.1 (≈ 0.224 µM) |  |  |
